According to patent publication US20250059207A1, “6,6-FUSED HETEROCYCLIC COMPOUNDS AS METTL3 INHIBITORS” (858 Therapeutics, Inc., priority 2021, published 2025):
pIC50: −log10 of the molar value.

What follows are compounds tested on MOLM-13 cells (assay: Viability assay in MOLM-13 cells (CellTiter-Glo 2.0)). Conditions: MOLM-13 human AML cells, 72 hours, CellTiter-Glo 2.0; read-out: MOLM-13 IC50 (cell viability).
Type: cell-based, human
Description: Effects of test compounds on the proliferation and viability of human AML cells was evaluated using the MOLM-13 cell line (AddexBio Technologies cat. no. C0003003). […] Test compounds or controls (Bortezomib or DMSO) diluted in 2% DMSO/media were added to each well for final concentrations of 0.2% DMSO and 0.1-1 μM Bortezomib. The cells were incubated for 72 hours at 37° C. and 5% CO2. At the end of the 72 hour incubation, plates were removed from the incubator, cooled to room temperature and equal volume of CellTiter-Glo 2.0 (Promega) added to each well. After mixing and incubating the plate at room temperature for 10 minutes the luminescence was read using a plate reader. […] Concentration-response-curves and IC50 values were generated using Collaborative Drug Discovery software.

`O=c1c2cncc(-c3ccccc3)c2ccn1Cc1cn2cc(CNc3cc(NCCCCl)ccn3)ccc2n1` [Compound 96, 2-((6-(((4-((3-chloropropyl)amino)pyridin-2-yl)amino)methyl)imidazo [1,2-a]pyridin-2-yl)methyl)-5-phenyl-2,7-naphthyridin-1(2H)-one] and `CC(C)(NCc1ccc2nc(Cn3ccc4c(-c5ccccc5)cncc4c3=O)cn2c1)c1ccccc1` [Compound 81, 5-phenyl-2-((6-(((2-phenylpropan-2-yl)amino)methyl)imidazo[1,2-a]pyridin-2-yl)methyl)-2,7-naphthyridin-1(2H)-one] fall in the same range of pIC50: 5.00 to 6.00 for the first, 5.00 to 6.00 for the second.

`O=c1c2cncc(-c3ccccc3)c2ccn1Cc1cn2cc(CNCC3CCCC3)ccc2n1` [Compound 76, 2-((6-(((cyclopentylmethyl)amino)methyl)imidazo[1,2-a]pyridin-2-yl)methyl)-5-phenyl-2,7-naphthyridin-1(2H)-one] and `O=c1c2cncc(-c3ccccc3)c2ccn1Cc1cn2cc(CNCc3ccccc3)ccc2n1` [Compound 72, 2-((6-((benzylamino)methyl)imidazo[1,2-a]pyridin-2-yl)methyl)-5-phenyl-2,7-naphthyridin-1(2H)-one] fall in the same range of pIC50: 5.00 to 6.00 for the first, 5.00 to 6.00 for the second.

`CC1(C)CCN(Cc2ccc3nc(Cn4ccc5c(N6CC7(CCNCC7)C6)cncc5c4=O)cn3c2)CC1` [Compound 119, 5-{2,7-diazaspiro[3.5]nonan-2-yl}-2-({6-[(4,4-dimethylpiperidin-1-yl)methyl]imidazo[1,2-a]pyridin-2-yl}methyl)-1,2-dihydro-2,7-naphthyridin-1-one] and `CC1(C)CCN(Cc2ccc3nc(Cn4ccc5c(N6CC7(CCOCC7)C6)cncc5c4=O)cn3c2)CC1` [Compound 114, 2-({6-[(4,4-dimethylpiperidin-1-yl)methyl]imidazo[1,2-a]pyridin-2-yl}methyl)-5-{7-oxa-2-azaspiro[3.5]nonan-2-yl}-1,2-dihydro-2,7-naphthyridin-1-one] fall in the same range of pIC50: 5.00 to 6.00 for the first, 5.00 to 6.00 for the second.

`O=c1c2cncc(-c3ccccc3)c2ccn1Cc1cn2cc(CNC3(c4ccccc4)CCC3)ccc2n1` [Compound 80, 5-phenyl-2-((6-(((1-phenylcyclobutyl)amino)methyl)imidazo[1,2-a]pyridin-2-yl)methyl)-2,7-naphthyridin-1(2H)-one] and `O=c1c2cncc(-c3ccccc3F)c2ccn1Cc1cn2cc(CNCC34CC(F)(C3)C4)ccc2n1` [Compound 154, 2-[(6-{[({3-fluorobicyclo[1.1.1]pentan-1-yl}methyl)amino]methyl}imidazo[1,2-a]pyridin-2-yl)methyl]-5-(2-fluorophenyl)-1,2-dihydro-2,7-naphthyridin-1-one] fall in the same range of pIC50: 5.00 to 6.00 for the first, 5.00 to 6.00 for the second.

`CC1(C)CCN(Cc2ccc3nc(Cn4ccc5c(N6CC7COCC7C6)cncc5c4=O)cn3c2)CC1` (stereo not drawn) [Compound 117, 2-({6-[(4,4-dimethylpiperidin-1-yl)methyl]imidazo[1,2-a]pyridin-2-yl}methyl)-5-{hexahydro-1H-furo[3,4-c]pyrrol-5-yl}-1,2-dihydro-2,7-naphthyridin-1-one] and `CC1(C)CCN(Cc2ccc3nc(Cn4ccc5c(C#Cc6ccncc6)cncc5c4=O)cn3c2)CC1` [Compound 124, 2-((6-((4,4-dimethylpiperidin-1-yl)methyl)imidazo[1,2-a]pyridin-2-yl)methyl)-5-(pyridin-4-ylethynyl)-2,7-naphthyridin-1(2H)-one] cannot be ordered by pIC50: less than 5.00 for the first, less than 5.00 for the second.

`Cc1ccc2nc(Cn3ccc4c(-c5ccccc5C#N)cncc4c3=O)cn2c1` [Compound 28, 2-(7-((6-methylimidazo[1,2-a]pyridin-2-yl)methyl)-8-oxo-7,8-dihydro-2,7-naphthyridin-4-yl)benzonitrile] and `Cc1ccc2nc(Cn3ccc4c(-c5c(F)cccc5F)cncc4c3=O)cn2c1` [Compound 29, 5-(2,6-difluorophenyl)-2-((6-methylimidazo[1,2-a]pyridin-2-yl)methyl)-2,7-naphthyridin-1(2H)-one] cannot be ordered by pIC50: less than 5.00 for the first, less than 5.00 for the second.

First: NC(=O)c1ccc(-c2cncc3c(=O)n(Cc4cn5cc(CNCC67CC(F)(C6)C7)ccc5n4)ccc23)cc1 [Compound 155, 4-{7-[(6-{[({3-fluorobicyclo[1.1.1]pentan-1-yl}methyl)amino]methyl}imidazo[1,2-a]pyridin-2-yl)methyl]-8-oxo-7,8-dihydro-2,7-naphthyridin-4-yl}benzamide]
Second: CC1(C)CCN(Cc2ccc3nc(Cn4ccc5c(-c6ccc(S(N)(=O)=O)cc6)cncc5c4=O)cn3c2)CC1 [Compound 123, 4-[7-({6-[(4,4-dimethylpiperidin-1-yl)methyl]imidazo[1,2-a]pyridin-2-yl}methyl)-8-oxo-7,8-dihydro-2,7-naphthyridin-4-yl]benzene-1-sulfonamide]
The pIC50 of the first is higher: 5.00 to 6.00 for the first, less than 5.00 for the second. The first is the more potent here.

First: O=c1c2cncc(N3CC4(C3)CC(F)(F)C4)c2ccn1Cc1cn2cc(CNCC3CC(F)C3)ccc2n1 (stereo not drawn) [Compound 142, 5-{6,6-difluoro-2-azaspiro[3.3]heptan-2-yl}-2-{[6-({[(3-fluorocyclobutyl)methyl]amino}methyl)imidazo[1,2-a]pyridin-2-yl]methyl}-1,2-dihydro-2,7-naphthyridin-1-one]
Second: O=c1c2cnccc2ccn1Cc1cn2cc(CNCC3CCCCC3)ccc2n1 [Compound 71, 2-((6-(((cyclohexylmethyl)amino)methyl)imidazo[1,2-a]pyridin-2-yl)methyl)-2,7-naphthyridin-1(2H)-one]
The pIC50 of the first is higher: 5.00 to 6.00 for the first, less than 5.00 for the second.

First: Cc1ccc2nc(Cn3ccc4c(N5CCCCC5)cncc4c3=O)cn2c1 [Compound 10, 2-((6-methylimidazo[1,2-a]pyridin-2-yl)methyl)-5-(piperidin-1-yl)-2,7-naphthyridin-1(2H)-one]
Second: CCNc1ccc2ccc(-c3ccc(Cn4ccc5c(-c6ccccc6)cncc5c4=O)cc3)cc2n1 [Compound 93, 2-(4-(2-(ethylamino)quinolin-7-yl)benzyl)-5-phenyl-2,7-naphthyridin-1(2H)-one]
The pIC50 of the first is lower: less than 5.00 for the first, 5.00 to 6.00 for the second.
